In patent US20260000645A1, “USE OF EBSELEN OR ONE OF THE DERIVATIVES THEREOF TO TREAT MITOCHONDRIAL PATHOLOGIES OR DYSFUNCTIONS” (ASSOCIATION FRANCAISE CONTRE LES MYOPATHIES, priority 2022, published 2026):

Legend:
[1] = test system: Cox2 protein in mutant strain taz1; assay: Accumulation of Cox2 protein (SDS-PAGE/immunoblot) in taz1; assay type: cell-based, Saccharomyces cerevisiae; conditions: 1 μM of EBS
Procedure: Total protein extracts from the mutant yeast strain were analyzed by SDS-PAGE ([…] per well) using antibodies against the indicated proteins. The gels shown are representative of at least 3 experiments. Protein levels were quantified using the ImageJ software. The levels of Cox2 were normalized with respect to Ade13p and expressed with respect to the wild type (WT) strain.

mutant yeast strain taz1 = assay: Respiratory growth in liquid culture (bioscreen, OD600); assay type: cell-based, Saccharomyces cerevisiae; conditions: taz1, liquid respiratory medium
Procedure: In order to determine the optimum concentration of EBS leading to the suppression of a respiratory growth defect of the mutant yeast strain, cells undergoing exponential growth were inoculated in fresh Ethanol YPA non-fermentable media supplemented or not supplemented with increasing concentrations of EBS. The growth of cells in the liquid respiratory medium was monitored using the bioscreen system over a period of 80 h during which (OD600 nm) cell densities were sampled every 20 minutes.

[2] = test system: myoblasts of a TAZ patient; assay: Growth of myoblasts of TAZ patients (SRB, low glucose, 120 hours); assay type: cell-based, human
Procedure: EBS was also tested for the ability thereof to restore cell growth of a line of myoblasts from patients, carriers of mutations in the TAZ gene. The rate of proliferation was measured in a medium with a weak concentration of glucose in 384 well micro-titration plates (1200 cells/wells at T0) using the Sulforhodamine B (SRB) staining protocol at 48, 72, 96 or 120 hours after placing the cells.

[3] = test system: mutant yeast strains (cox2, sym1, fmc1, atp6, taz1, shy1, A29G); assay: Halos test: respiratory growth of mutant yeast strains on non-fermentable solid medium; assay type: cell-based, Saccharomyces cerevisiae; conditions: 30 and 90 nmoles on filter, 28° C. or 36° C., 4 to 5 days
Procedure: Each of the strains of the yeast Saccharomyces cerevisiae used in these examples contain different specific mutations modeling human mutations leading to mitochondrial illnesses. At varying degrees, all these mutant yeast strains have a growth defect when cultivated on a respiratory medium such as ethanol or glycerol at 28° C. or 36° C. (depending on the strain).
• fmc: MC6 MATa ade2-1 his3-11,15 trp1-1 leu2-3,112 ura3-I fmc1: :HIS3 [Δi ER OR] (Schwimmer, C. et al. (2005) J Biol Chem, 280, 30751-30759) for the first screening • MR14 MATa ade2-1 his3-11,15 trp1-1 leu2-3,112 ura3-1 CAN1 arg8::HIS3 ρ+ atp6-L173R or RKY20MATa ade2-1 his3-11,15 trp1-1 leu2-3,112 ura3-1 CAN1 arg8::HIS3 ρ+ atp6-L173P (Rak, M. et al. (2007) J Biol Chem, 282, 34039-34047) for the second screening • taz1Δ: this strain was produced by substituting the open reading framework of TAZ1 by that of TRP1 in the strain W303-1A (MATa ade2-1 ura3-1 his311, 15 trp1-1 leu2-3, 112 can1-100) (from Taffin de Tilques, M. et al. (2017) Dis Model Mech, 10, 439-450) • shy1-G137R: this mutant was produced in the strain CW252 containing the nuclear base of W303 and a mitochondrial gene lacking intron. […]

mutant Pa nuo-51^A357V = assay: Growth halo of heat sensitive complex I mutant at 33° C.; assay type: cell-based, Podospora anserina; conditions: 20 nmoles of EBS, 4-5 days
Procedure: The strain used in the following examples contains a specific mutation modeling a human mutation in the sub-unit NDUFV1 of complex I leading to a mitochondrial illness. This strain has a growth defect at a non-permissive temperature greater than 31.5° C.
nuo-51^A357V: The mutation A357V was introduced into the gene nuo-51 of the wild type strain S along with a resistance cassette of nourseothricin (NatR). In order to mimic the human illness NDUFV1A341V, the genes NDI-1 and AOX were deactivated (El-Khoury et al., (2008) Curr Genet. 53:249-58)
The heat sensitive mutant Pa nuo-51^A357V was homogeneously spread on sterile glass beads on a square Petri dish containing a solid minimal medium (M2). Small sterile filters were then placed on the agar-agar surface and 20 nmoles of EBS were added. DMSO (the vehicle of the compound) was used as a negative control. The plate was then incubated at the non-permissive temperature of 33° C. for 4-5 days then photographed.

O=c1c2ccccc2[se]n1-c1ccccc1 [ebselen, 2-phenyl-1,2-benzisoselenazol-3(2H)-one]
accumulation of the protein Cox2 [1]: increases
active concentration range, lower limit (mutant yeast strain taz1): ≥ 1 nM
active concentration range, upper limit (mutant yeast strain taz1): ≤ 3 µM
optimum concentration (mutant yeast strain taz1): 1 µM
toxic concentration (mutant yeast strain taz1; 80 h): ≥ 27 µM
toxicity concentration [2]: > 78.3 µM
concentration range with beneficial effects on growth, lower limit ([2]; vs DMSO): ≥ 450 nM
concentration range with beneficial effects on growth, upper limit ([2]; vs DMSO): ≤ 8.7 µM
respiratory growth (halo of improved growth) [3]: active on all the mutant strains of yeast tested in a dose dependent manner
growth of the mutant (growth halo) (mutant Pa nuo-51^A357V): positive effect
